Experimental data taken from US20260183302A1, “PDK1 REGULATORY COMPOUND AND COMPOSITION CONTAINING THE SAME” (PROVIBIO CO., LTD., priority 2024, published 2026).

Tests used:
[1] = test system: skin graft (BALB/c donor to C57BL/6 recipient); assay: In vivo skin graft immune suppression model; set-up: species or system C57BL/6 mice; conditions: 0.15 mg/kg twice daily
Protocol: To evaluate the immune-suppressive effects of the compounds according to the present invention, a skin graft animal model was established, and the efficacy of the compounds was analyzed in the model.
First, female BALB/c mice aged 7 weeks and weighing approximately 20 g were used as donor animals, and female C57BL/6 mice of the same age and weight were used as recipient animals. All experimental animals were supplied by HanabioTech Co., Ltd.
Prior to the experiment, the animals were acclimatized in SPF-certified facilities for one week and then used in the experiment. The housing conditions were maintained at a temperature of 22±2° C., relative humidity of 55+10%, and a 12-hour light-dark cycle.
To establish the skin graft model, a anesthetic solution consisting of ketamine, […], and PBS in a volume ratio of 1:1:3 was administered intraperitoneally to C57BL/6 mice to induce anesthesia.
The hair on the dorsal side of the anesthetized mice was removed and disinfected, followed by excision of the full-thickness skin using an 8 mm punch. Subsequently, skin of the same size was harvested from donor mice (BALB/c) and transplanted. […]
Subsequently, the proportions of CD3- and B220-positive cells were analyzed using a flow cytometer.

[2] = test system: Human multiple myeloma, KMS34; assay: Relative cell viability, KMS34 (CCK-8); type: cell-based; conditions: concentration 1 μM, relative to untreated cells
Protocol: After that, 10 μL of CCK-8 was added to each well, and the plate was incubated again at 37° C. in a 5% CO2 incubator for 2 hours.
In other words, when the survival rate of untreated cells (DMSO) is set at 100%, the relative cell survival rate in each group treated with the drug at different concentrations is indicated.

[3] = test system: MRL/lpr mice; assay: Systemic lupus erythematosus animal model (MRL/lpr); type: in vivo, MRL/MpJ-Faslpr/J mice
Text: The MRL/MpJ-Faslpr/J (hereinafter referred to as “MRL/lpr”) used in this experiment is one of the representative animal models for systemic lupus erythematosus (SLE), known to produce various autoantibodies, including antinuclear antibodies, due to the lpr (lymphoproliferation) gene.
In this invention, the period up to 9 weeks of age was considered the pre-disease stage, and the period after 23 weeks of age was considered the post-disease stage, and efficacy verification experiments using this model were conducted.
Subsequently, female and male MRL/lpr mice were mated at a ratio of 2:1 in the same facility, and the female offspring were administered the compound GO15F of the present invention or vehicle at a dose of 30 mg/kg once daily via intraperitoneal injection or oral administration from the age of 10 weeks until 23 weeks of age.
Urine samples were collected once a week from each individual and used for analytical experiments.
At 23 weeks of age, necropsy was performed on each MRL/lpr mouse, and serum, kidneys, and spleens were isolated and used for analytical experiments. […]
The concentration of anti-nuclear antibodies (Anti-dsDNA Ab) was measured using the ‘Mouse Anti-dsDNA IgG ELISA Kit (Alpha Diagnostic International, Cat. #5120)’ on serum isolated at the time of necropsy in the lupus animal model.
Each mouse serum was diluted to a final concentration of 1/5000 with Working Sample Diluent (WSD) and Low NSB Sample Diluent (LNSD), followed by adding 100 μl of the diluted serum to wells coated with anti-dsDNA and incubating at room temperature for 60 minutes.
The serum separated at the time of necropsy of the lupus animal model was analyzed using the ‘IgG (Total) Mouse Uncoated ELISA Kit (Invitrogen, Cat. #88-50400)’ to measure the concentration of total IgG.
To investigate the effect of GO15F administration on changes in the ratio of immune cells in the spleen of a lupus animal model, the spleens of mice administered each compound were excised, cells were extracted, and the cells were suspended in MACS buffer (autoMACS Washing Solution, Miltenyi Biotec., Cat. #130-092-987).
For flow cytometry analysis, FACS tubes (5 mL round tubes, Falcon, Cat. #352052) were used. To prevent non-specific binding of antibodies, 1 μg/mL of anti-mouse CD16/CD32 (In VivoPlus anti-mouse CD16/CD32, BioXCell, Cat. #BP0307) for 30 minutes to prevent non-specific binding of the antibody, then centrifuge at 1,500 rpm for 5 minutes and resuspend in 100 μL of MACS buffer.
For B cells, each FACS tube was stained with 1 μg/mL of FITC-conjugated anti-B220 antibody (eBioscience™, Cat. #11-0452-81) at 4° C. for 30 minutes, then washed with 2 mL of MACS buffer.
For T cells, each FACS tube was stained with 1 μg/mL PerCP-Cy5.5-conjugated anti-CD3 (Biolegend, Cat. #100218) at 4° C. for 30 minutes.
For macrophages, each FACS tube was stained with 1 μg/mL of PE-conjugated anti-CD11b antibody (Biolegend, Cat. #101207) and PerCP-Cy5.5-conjugated anti-F4/80 (Biolegend, Cat. #123128) and incubated at 4° C. for 30 minutes. The tubes were then washed with 2 mL of MACS buffer. […]
The synthesized cDNA from each mouse was quantified to a concentration of 50 ng using a micro-quantitative spectrophotometer, and qPCR was performed for the cytokines ‘IL-2, IL-6, IL-10, IL-17, TNF-α, IFN-γ’ using a SYBR green probe (CFX96, BIO-RAD).
To investigate the effects of drug administration on renal tissue in MRL/lpr mice, the tissue was fixed in 10% neutral buffered formalin at room temperature, followed by stepwise ethanol penetration for dehydration. The tissue was then embedded in xylene and paraffin.
The blocked tissues were sectioned into 4 μm thick slices using a microtome, followed by deparaffinization, hydration, and staining.
Hematoxylin & Eosin staining, PAS staining, and Masson trichrome staining were performed for pathological evaluation of the tissues. […]

[4] = serum at necropsy, ELISA, vs control group

Nc1ncccc1C(=O)NCCCCCCCCCCCCN1CCNCC1 [Compound 14, 2-Amino-N-(12-(piperazin-1-yl)dodecyl)nicotinamide]
animals with graft pinkening and good blood flow ([1]; day 10 post-transplantation): three out of five
animals with graft pinkening and good blood flow ([1]; day 15 post-transplantation): one out of five

12-[4-(2,2-dimethylmorpholin-4-yl)]dodecyl-N-(6-aminopurine-2-yl) carboxamide [Compound 11]
Relative cell viability (%) [2]: 26.19%

Nc1ncccc1C(=O)NCCCCCCCCCCCCF [Compound 57, 2-Amino-N-(12-fluoro-dodecyl)-nicotinamide]
protein concentration in urine ([3]; 30 mg/kg once daily, vs control group): significantly lower
renal pathological tissue staining (glomeruli) ([3]; H&E, PAS, Masson trichrome): glomerular capillary loops were well maintained
immune cells in the spleen (B cells, T cells, macrophages) ([3]; flow cytometry (B220, CD3, CD11b/F4/80)): reduced the increased B cells, T cells, and macrophages
IgG deposition in kidney tissue ([3]; immunofluorescence staining, vs control group): significantly lower
concentration of anti-dsDNA IgG in the blood [3, 4]: significantly lower
total IgG concentration in the blood [3, 4]: significantly lower
